Assay results reported in patent US10918714B2, “Human iNKT cell activation using glycolipids with altered glycosyl groups” (Academia Sinica, priority 2013, dated 2021).
“Also recorded” adds a separate entry of the source. Values belong to the molecule of their own block, whether it stands above or below them.

Tests used:
B6 WT mice splenocytes = experiment: FACS analyses of WT mouse immune cells (splenocytes) after glycolipid stimulation; type: in vivo; conditions: 1 μg/mouse, 72 hr post-injection
Experimental: (§1) B6 WT or Jα18 KO mice treated with specific glycolipid (1 μg/mouse) or vehicle (1% DMSO in PBS) were sacrificed at 72 hr post-injection and their spleens were harvested. After pressing spleens through 70 um strainer and lysis of erythrocytes, the nucleated cells were resuspended in PBS buffer containing azide (0.05%) and stained with antibodies recognizing the indicated cell surface antigens for 30 min at 4° C. After washing, the splenocytes were subjected to FACS analysis. The antibodies against CD3, CD4, CD8β, CD11c, CD80, and CD86 were obtained from BD Bioscience-Pharmingen.

mouse iNKT TCR = mouse iNKT TCR (Mus musculus, UniProt A0A0B4J1J9+P11609); experiment: Binding avidity of mCD1d-loaded glycolipids to Vα14+ iNKT cells (ternary interaction); conditions: for Kd: mCD1d-glycolipid complex, DN3A4-1.2 murine iNKT hybridoma cells
Experimental: Briefly, murine CD1d:Ig dimer (BD Biosciences PharMingen, San Diego, Calif.) was loaded with glycolipids at a molar ratio of 1:10 or vehicle for overnight at 37° C. Murine 1.2 Vα14^+ iNKT cells were incubated with various doses of dimer-glycolipid complex in buffer containing azide (0.05%) for 30 min at 4° C. These cells were then stained with anti-mouse IgG1-PE mAb (A85-1) for another 30 min at 4° C., followed by washing, fixation with 4% paraformaldehyde (PFA), and the bound mCD1d dimer complexes were detected by flow cytometry. The binding curve and linear fit of the Scatchard transformation were plotted by Graphpad Prism software.

B6 wild type mice = experiment: Murine serum cytokine/chemokine secretion after i.v. glycolipid, B6 WT mice; type: in vivo; conditions: i.v. 1 μg/mouse; for induction of serum cytokines/chemokines: sera 2 and 18 hr after injection
Experimental: (§2) All the glycolipids were dissolved in 100% DMSO at a concentration of 1-2 mg/ml. For in vivo experiments, all compounds were diluted to 10 μg/ml in saline just before injection of 100 μl diluted glycolipid or 100 μl 1% DMSO into mice. Pathogen-free C57BL/6 female mice aged 6-12 weeks were obtained from the National Laboratory Animal Center (Taipei, Taiwan). Jα18 knockout (KO) B6 mice were the gifts from Dr. Masaru Taniguchi (RIKEN Research Center for Allergy and Immunology, Yokohama, Japan). All the mice were maintained in pathogen free vivarium of Institute of Cellular and Organismic Biology, Academia Sinica (Taipei, Taiwan).
(§3) B6 WT or Jα18 KO mice were intravenously injected with vehicle or glycolipids at 0.1 or 1 μg/mouse. Serum was collected at 2 and 18 h after injection for measurement of cytokines/chemokines by Beadlyte® Mouse Cytokine kit (Millipore, N.Y.) and read by a Luminex® 200™ system (Luminex, Austin, Tex.).

Jα18 knockout mice [1] = conditions: Jα18 KO mice; cited from earlier work
human iNKT TCR = human iNKT TCR (Homo sapiens, UniProt A0A0B4J240+P15813); experiment: Binding avidity of hCD1d-loaded glycolipids with Vα24+ iNKT cells (ternary interaction)
Experimental: Binding avidity of human CD1d-glycolipid complexes to Vα24^+ iNKT cells expanded by 7DW8-5 at 100 ng/ml was determined as described previously.^19
(§4) Vα24^+ iNKT cell lines expanded with 7DW8-5 or C1 were generated as follows. After irradiation with 2,000 rad, the immature DCs were cocultured with syngenic Vα24^+ iNKT cells in the presence of 7DW8-5 or C1 at 100 ng/ml for 1 day. The cells were expanded in the presence of 50 U/ml IL-2 for 10-14 days after lipid removal. The same procedures were repeated once for further stimulation and expansion of iNKT cells.

[2] = system: C1-expanded Vα24+ iNKT cells; experiment: mCD1d vs. hCD1d swapping assay, human iNKT cells; type: cell-based; conditions: presented by mCD1d (A20-CD1d) or hCD1d (HeLa-CD1d), 1, 0.1, 0.01 μg/ml
Experimental: as §4
(§5) Murine DN3A4-1.2 Vα14^+ iNKT hybridoma cells or C1-expanded Vα24^+ iNKT cells were pulsed with the indicated glycolipid antigen presented either by mCD1d (A20-CD1d cells) or hCD1d (HeLa-CD1d cells) at 1, 0.1, and 0.01 μg/ml. After 18 hr, the supernatants were harvested for the measurement of cytokine secretion(s). IL-2 released from Vα14^+ iNKT cells was determined by ELISA assay. IFN-γ, IL-4 and IL-2 secreted from Vα24^+ iNKT cells were detected using Beadlyte® Human Cytokine kit (Millipore, N.Y., USA) and Luminex® 200™ reading system.

[3] = system: Murine DN3A4-1.2 Vα14+ iNKT hybridoma cells; experiment: mCD1d vs. hCD1d swapping assay, murine iNKT cells; type: cell-based, mouse; conditions: presented by mCD1d (A20-CD1d) or hCD1d (HeLa-CD1d), 1, 0.1, 0.01 μg/ml
Experimental: as §5

C1-pulsed splenocytes = experiment: CD1d dimer staining of in vivo C1-pulsed splenocytes; type: binding; conditions: B6 WT splenocytes 3 days after C1 1 μg/mouse, CD3+/CD45R− gate
Experimental: FIGS. 11A-D show: CD1d dimer staining of in vivo C1-pulsed splenocytes. B6 WT splenocytes (n=3) were harvested 3 days after injection with C1 (1 μg/mouse) and stained with CD3, CD45R and the indicated dimer complex conjugated with RPE for 1 hr at 4 degrees Celsius. (11A) CD3+/CD45R− cells were gated to analyze the dimer staining. (11B) unloaded dimer was used as the control. (11C) mCD1d dimer loaded with 7DW8-5-Glc stained 17.1±0.8% of C1-pulsed splenocytes. (11D) mCD1d dimer loaded with 7DW8-5 stained 36.2±5.0% of C1-pulsed splenocytes.

mCD1d dimer = target: T1, mCD1d dimer (Mus musculus, UniProt P11609); experiment: Binding strength of the binary complex between mCD1d and glycolipid (L363 antibody ELISA); conditions: KD from Scatchard transformation (FIG. 10D)
T1 construct: Ig fusion (dimer); purchased BD Biosciences PharMingen
T1 sequence (P11609 19-305 limits assumed): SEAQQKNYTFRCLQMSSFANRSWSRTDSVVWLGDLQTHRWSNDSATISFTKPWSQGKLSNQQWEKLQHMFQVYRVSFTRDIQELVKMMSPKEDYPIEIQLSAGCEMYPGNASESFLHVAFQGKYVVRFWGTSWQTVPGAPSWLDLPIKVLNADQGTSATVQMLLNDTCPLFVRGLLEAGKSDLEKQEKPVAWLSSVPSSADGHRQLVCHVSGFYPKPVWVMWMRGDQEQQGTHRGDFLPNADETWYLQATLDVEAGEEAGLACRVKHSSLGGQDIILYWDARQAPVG
T1 sequence (P01887 21-119 partner): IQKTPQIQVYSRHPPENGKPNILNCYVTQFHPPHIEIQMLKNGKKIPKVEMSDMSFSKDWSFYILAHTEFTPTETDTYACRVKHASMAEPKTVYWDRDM
Experimental: Different concentrations of mCD1d^di-glycolipid complexes coated on the ELISA plate were incubated with the saturated amounts of L363 antibody (BioLegend) conjugated with biotin, followed by streptavidin-HRP detection and ELISA measurement. The KD between L363 antibody and the indicated mCD1d^di-glycolipid complex was calculated from the linear regression of the Scatchard transformation of the L363 antibody binding curve using GraphPad Prism software. […] Next, the KD of the binary complex was determined as follows. Different concentrations of glycolipids were incubated with fixed amounts of mCD1d dimer at 37° C. overnight, and then mCD1d^di-glycolipid complexes were coated on the 96 well ELISA plate at 4° C. overnight. After washing and blocking with BSA at room temperature (RT) for 1 hr, L363 antibody conjugated with biotin was added for 30 min at RT, followed by incubation with streptavidin-HRP for 30 min at RT and detection with an ELSIA reader. KD values of the binary complex were calculated from the linear regression of the Scatchard transformation of the L363 antibody binding curve.

Jα18 knockout mice [4] = experiment: Murine serum cytokine/chemokine secretion after i.v. glycolipid, Jα18 knockout mice; type: in vivo; conditions: Jα18 KO mice, 1 μg/mouse
Experimental: as §2, §3

[5] = system: Jα18 KO mouse splenocytes; experiment: FACS analyses of Jα18 KO mouse immune cells (splenocytes) after glycolipid stimulation; type: in vivo; conditions: Jα18 KO mice, 3 days after i.v. injection, 1 μg/mouse
Experimental: as §1

[6] = system: Human naïve Vα24+ iNKT cells; experiment: Expansion of human iNKT cells; type: cell-based; conditions: DCs pulsed with glycolipid at 100 ng/ml, IL-2 culture
Experimental: Human naïve Vα24^+ iNKT cells were cultured with autologous immature CD14^+ DCs pulsed with the indicated glycolipid at 100 ng/ml or DMSO on day 2 for 18 h. On day 3, the suspension cells were transferred to a new dish, cultured in the presence of 50 U/ml IL-2 (R & D Systems), and replenished with fresh medium every 3 days. The percentage of Vα24^+/Vβ11^+ cells was determined by flow cytometry on day 9. The total cell number after expansion was calculated with the Guava ViaCount reagent (Millipore, USA) and detected by the Guava system with CytoSoft™ software containing the ViaCount module (Millipore, USA).
Vα24^+ iNKT cells and CD14^+ cells were isolated from peripheral blood cells as described previously.^19 Immature DCs were generated from the CD14^+ cells after 2-day incubation in the presence of 300 U/ml GM-CSF (R & D Systems) and 100 U/ml IL-4 (R& D Systems).

murine iNKT cell = conditions: as compared to αGalCer; cited from earlier work
human iNKT cell = conditions: as compared to αGalCer; cited from earlier work

- Kd (mouse iNKT TCR): 7.96 ± 1.27 nM
SMILES: CC[C@@H](O)[C@@H](O)[C@H](CO[C@H]1OC(CO)[C@@H](O)C(O)C1O)NC(=O)Cc1ccc(Oc2ccc(F)cc2)cc1 (stereo partly drawn) [Compound C34-Glc]
- CD80+ DCs activated, as compared to 7DW8-5-Glc (B6 WT mice splenocytes): ~2 fold
- CD86+ DCs activated, as compared to 7DW8-5-Glc (B6 WT mice splenocytes): ~2 fold
- induction of serum cytokines/chemokines (B6 wild type mice): triggered both cytokines and chemokines; also recorded: better than 7DW8-5-Glc

SMILES: CCCCCCCCCCCCCCCCCCCCCCCCCC(=O)N[C@@H](CO[C@H]1O[C@H](CO)[C@H](O)[C@H](O)[C@H]1O)[C@H](O)[C@H](O)CCCCCCCCCCCCCC [Compound C1, α-galactosylceramide, reference compound]
- Kd (mouse iNKT TCR): 1.24 ± 0.003 nM
- IFN-γ in the sera (Jα18 knockout mice [1]): not secreted
- Kd (human iNKT TCR; hCD1d-glycolipid complex, human Vα24+/Vβ11+ iNKT cells): 16.4 ± 4.2 nM

- staining of murine iNKT cells with CD1d-glycolipid dimer (mouse iNKT TCR): lack of staining
- staining of human iNKT cells with CD1d-glycolipid dimer (human iNKT TCR): lack of staining
SMILES: CCCCCCCCCCCCCC[C@@H](O)[C@@H](O)[C@H](CO[C@H]1O[C@H](CO)[C@@H](O)[C@H](O)[C@@H]1O)NC(=O)CCCCCCCCCCc1ccc(F)cc1 [Compound 7DW8-5-Man]
- expansion of immune cells (B6 WT mice splenocytes): did not expand any types of immune cells
- cytokine secretion from human iNKT cells [2]: could not stimulate
- induction of serum cytokines/chemokines (B6 wild type mice): failed to induce any cytokines/chemokines
- cytokine secretion from mouse iNKT cells [3]: could not stimulate

- binding avidity to mCD1d dimer relative to αGalCer (mCD1d dimer): ~20 fold
- binding avidity of the murine ternary complex versus C34-Glc (mouse iNKT TCR): comparable
SMILES: CC[C@@H](O)[C@@H](O)[C@H](CO[C@H]1OC(CO)[C@@H](O)C(O)C1O)NC(=O)Cc1ccc(F)cc1 (stereo partly drawn) [Compound 7DW8-5-Glc]
- C1-pulsed splenocytes stained by mCD1d dimer loaded with glycolipid (C1-pulsed splenocytes): 17.1±0.8%
- secretion of chemokines including KC, MCP-1, IP-10 and MIG (Jα18 knockout mice [4]): triggered the secretion
- induction of cytokines (Jα18 knockout mice [4]; sera 2 and 18 hr after injection): no induction of cytokines
- CD11chi monocyte-derived DCs expansion and activation [5]: significantly expanded and activated
- total splenocytes, CD4+ T and CD8+ T cells [5]: No significant differences
- levels of KC, MCP-1, IP-10 and MIG chemokines (B6 wild type mice; sera 2 and 18 hr): relatively high levels
- levels of Th1 and Th2 cytokines (B6 wild type mice; sera 2 and 18 hr): very low levels
- expanding human iNKT cells in vitro (number of expanded iNKT cells on day 9) [6]: significantly (p=0.0009) better than 7DW8-5

- Kd (mouse iNKT TCR): 5.14 ± 0.11 nM
SMILES: CCC(=O)N[C@@H](CO[C@H]1OC(CO)[C@@H](O)C(O)C1O)[C@H](O)[C@H](O)CC (stereo partly drawn) [Compound C1-Glc]
- murine iNKT cell proliferation (murine iNKT cell): less stimulatory
- CD80+ DCs activated, as compared to 7DW8-5-Glc (B6 WT mice splenocytes): ~3.5 fold
- CD86+ DCs activated, as compared to 7DW8-5-Glc (B6 WT mice splenocytes): ~3 fold
- total splenocytes and DCs expanded, as compared to 7DW8-5-Glc (B6 WT mice splenocytes): ~1.3 fold
- human iNKT cell proliferation (human iNKT cell): more potent
- induction of serum cytokines/chemokines (B6 wild type mice): triggered both cytokines and chemokines; also recorded: better than 7DW8-5-Glc
